Laboratory results reported in paper PMC3070406 (The Pediatric infectious disease journal, 2011).
Several values for one entry are separate records, joined by “and”; a condition that tells them apart may be missing. Identical values can stand only once.

Assays:
[1] = system: influenza infection; set-up: species or system human; conditions: in vivo, po
[2] = system: NA of influenza A and B virus isolates; type: biochemical, influenza A and B viruses

With `CCOC(=O)C1=C[C@@H](OC(CC)CC)[C@H](NC(C)=O)[C@@H](N)C1` [oseltamivir] the “duration of symptoms after commencing antiviral treatment (mean)” value [1] was 33.0 ± 8.3 days and 26 ± 17.9 days.
`CC(=O)N[C@H]1[C@H]([C@H](O)[C@H](O)CO)OC(C(=O)O)=C[C@@H]1N=C(N)N` [zanamivir] was tested, and the Susceptibility to zanamivir [2] was “susceptible”.
